The record followed here is patent publication US9533990B2, “Inhibitors of secretion of hepatitis B virus antigens” (priority 2010, dated 2017).

The structures appear in SMILES notation.

As to `Fc1cccc(Cl)c1-c1cc(-c2ccc(Cl)cc2)nc2ncnn12` [Example 17, 7-(2-Chloro-6-fluorophenyl)-5-(4-chlorophenyl)-[1,2,4]triazolo[1,5-a]pyrimidine], the melting point fell in the range of 238 to 239 °C.

For the compound `Fc1cccc(Cl)c1[C@@H]1C[C@H](c2ccccc2Cl)Nc2ncnn21` (relative stereo) [Example 25, cis-7-(2-Chloro-6-fluorophenyl)-5-(2-chlorophenyl)-4,5,6,7-tetrahydro-[1,2,4]triazolo[1,5-a]pyrimidine], the melting point fell in the range of 271 to 272 °C.

The compound `Fc1ccc([C@@H]2C[C@H](c3ccc(Cl)cc3)Nc3ncnn32)c(Cl)c1` (relative stereo) [Example 21, cis-7-(2-Chloro-4-fluorophenyl)-5-(4-chlorophenyl)-4,5,6,7-tetrahydro-[1,2,4]triazolo[1,5-a]pyrimidine] displayed a melting point of 224 to 225 °C.

In turn, `Fc1ccc([C@H]2C[C@@H](c3c(F)cccc3Cl)n3ncnc3N2)c(F)c1` (relative stereo) [Example 35, cis-7-(2-Chloro-6-fluorophenyl)-5-(2,4-difluorophenyl)-4,5,6,7-tetrahydro-[1,2,4]triazolo[1,5-a]pyrimidine] came in with a melting point of 225 °C.

As to `Fc1cccc(Cl)c1[C@@H]1C[C@H](c2ccc3ccccc3c2)Nc2ncnn21` (relative stereo) [Example 32, cis-7-(2-Chloro-6-fluorophenyl)-5-(naphthalen-2-yl)-4,5,6,7-tetrahydro-[1,2,4]triazolo[1,5-a]pyrimidine], the melting point lay in the range of 224 to 225 °C.

Compound `Fc1cccc(Cl)c1C1C=C(c2ccccc2Cl)Nc2ncnn21` (centres unmarked) [Example 5, 7-(2-Chloro-6-fluorophenyl)-5-(2-chlorophenyl)-4,7-dihydro-[1,2,4]triazolo[1,5-a]pyrimidine] came in with a melting point of 192 to 193 °C.

In turn, `Clc1ccc([C@H]2C[C@@H](c3ccccc3Cl)n3ncnc3N2)cc1` (relative stereo) [Example 22, cis-7-(2-Chlorophenyl)-5-(4-chlorophenyl)-4,5,6,7-tetrahydro[1,2,4]triazolo[1,5-a]pyrimidine] returned a melting point of 202 to 204 °C.

`Fc1cccc(Cl)c1[C@@H]1C[C@H](c2ccc(Cl)c(Cl)c2)Nc2ncnn21` (relative stereo) [Example 33, cis-7-(2-Chloro-6-fluorophenyl)-5-(3,4-dichlorophenyl)-4,5,6,7-tetrahydro-[1,2,4]triazolo[1,5-a]pyrimidine] registered a melting point of 252 to 254 °C.

Take `Fc1ccc(C2C=C(c3ccc(Cl)cc3)Nc3ncnn32)c(Cl)c1` (centres unmarked) [Example 4, 7-(2-Chloro-4-fluorophenyl)-5-(4-chlorophenyl)-4,7-dihydro-[1,2,4]triazolo[1,5-a]pyrimidine]: the melting point fell in the range of 250 to 251 °C.

`CC(C)c1ccc([C@@H]2C[C@H](c3ccc(Cl)cc3)Nc3ncnn32)cc1` (relative stereo) [Example 23, cis-5-(4-Chlorophenyl)-7-(4-isopropylphenyl)-4,5,6,7-tetrahydro[1,2,4]triazolo[1,5-a]pyrimidine] registered a melting point of 194 to 195 °C.

With `Fc1cccc(Cl)c1C1C=C(c2ccc3ccccc3c2)Nc2ncnn21` (centres unmarked) [Example 12, 7-(2-Chloro-6-fluorophenyl)-5-(naphthalen-2-yl)-4,7-dihydro-[1,2,4]triazolo[1,5-a]pyrimidine], the melting point is 237 °C.
